ChEMBL document CHEMBL1201862, “PubChem BioAssay data set” (2004)
Activity calls are given as the source filed them.

Columns and labels:
[1] = Luminescence Cell-Based Dose Retest to Confirm Inhibitors of Cancer Stem Cells. [Related pubchem assays (depositor defined):AID2717, AID2721]; type: functional; conditions: Homo sapiens
P388/ADR = assay: cells; type: functional; conditions: Mus musculus
SN12K1 = assay: cells; type: functional
P388 = assay: cells; type: functional
[2] = system: Streptococcus sp. 'group A'; assay: growth inhibition of control SK(-) GAS strain, dose response, counter-screen for streptokinase expression inhibitor project, luminescence, kanamycin, BacTiterGlo, confirmation (AID 1900); type: functional, organism-based
Streptokinase A = biological target: T1, Streptokinase A (Streptococcus pyogenes serotype M1, UniProt P10520); assay: S. pyogenes streptokinase expression inhibitors, potency, dose response, plasminogen activation absorbance, OD405 (AID 1914); type: functional, Streptococcus pyogenes M1 GAS;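 note: secreted streptokinase activity via plasminogen activation per viability signal from cell pellet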
T1 sequence (P10520 whole entry): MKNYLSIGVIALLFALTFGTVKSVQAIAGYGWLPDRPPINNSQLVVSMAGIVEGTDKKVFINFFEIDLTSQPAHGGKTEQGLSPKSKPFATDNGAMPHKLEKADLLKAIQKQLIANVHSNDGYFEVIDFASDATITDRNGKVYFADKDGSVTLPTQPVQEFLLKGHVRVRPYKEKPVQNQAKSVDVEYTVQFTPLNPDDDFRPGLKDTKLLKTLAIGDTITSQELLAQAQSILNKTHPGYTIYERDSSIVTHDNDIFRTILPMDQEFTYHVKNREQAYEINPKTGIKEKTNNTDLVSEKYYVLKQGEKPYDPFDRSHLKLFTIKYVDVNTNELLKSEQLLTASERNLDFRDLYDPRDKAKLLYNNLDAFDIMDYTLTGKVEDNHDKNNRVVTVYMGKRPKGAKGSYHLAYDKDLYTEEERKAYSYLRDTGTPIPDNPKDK

Streptococcus = assay: Group A Streptococcus viability loss, dose response, counter-screen for streptokinase expression inhibitor project, luminescence, BacTiterGlo (AID 1915); type: functional, organism-based;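 note: potency for reduction of bacterial viability or growth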
[3] = biological target: T2, Replicative DNA helicase DnaB (Mycobacterium tuberculosis, UniProt P9WMR3); assay: DnaB intein splicing inhibitors, dose response, biochemical, cell-free fluorescence (AID 449749); type: functional
T2 sequence (P9WMR3 whole entry): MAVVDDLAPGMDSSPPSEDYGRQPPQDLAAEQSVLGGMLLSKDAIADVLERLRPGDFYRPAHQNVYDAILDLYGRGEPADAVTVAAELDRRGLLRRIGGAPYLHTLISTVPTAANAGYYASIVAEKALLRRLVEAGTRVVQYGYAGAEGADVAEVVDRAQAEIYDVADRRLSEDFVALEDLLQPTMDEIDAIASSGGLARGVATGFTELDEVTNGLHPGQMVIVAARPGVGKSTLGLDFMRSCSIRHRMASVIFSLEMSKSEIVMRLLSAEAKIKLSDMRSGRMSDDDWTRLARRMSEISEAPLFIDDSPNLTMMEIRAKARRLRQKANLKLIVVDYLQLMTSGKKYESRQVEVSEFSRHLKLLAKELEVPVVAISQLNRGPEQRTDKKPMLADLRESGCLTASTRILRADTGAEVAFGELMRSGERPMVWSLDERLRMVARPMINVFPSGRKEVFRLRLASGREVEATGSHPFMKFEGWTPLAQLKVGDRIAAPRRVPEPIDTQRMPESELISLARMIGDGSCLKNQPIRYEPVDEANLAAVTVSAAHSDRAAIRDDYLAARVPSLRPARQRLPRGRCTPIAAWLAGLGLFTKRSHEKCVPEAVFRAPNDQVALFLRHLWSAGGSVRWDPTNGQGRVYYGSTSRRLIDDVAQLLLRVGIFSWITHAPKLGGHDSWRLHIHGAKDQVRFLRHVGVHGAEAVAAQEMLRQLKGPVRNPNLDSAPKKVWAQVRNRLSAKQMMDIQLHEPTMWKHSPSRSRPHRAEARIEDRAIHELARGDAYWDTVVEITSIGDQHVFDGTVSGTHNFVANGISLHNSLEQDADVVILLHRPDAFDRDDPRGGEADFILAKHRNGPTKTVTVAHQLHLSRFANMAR

Protein RecA = biological target: T3, Protein RecA (Mycobacterium tuberculosis, UniProt P9WHJ3); assay: Fluorescence Cell-Free Homogeneous Dose Retest to Identify Inhibitors of RecA-Intein Splicing Activity. [Related pubchem assays (depositor defined):AID2097, AID2223, AID489010, AID492950]; type: functional
T3 sequence (P9WHJ3 whole entry): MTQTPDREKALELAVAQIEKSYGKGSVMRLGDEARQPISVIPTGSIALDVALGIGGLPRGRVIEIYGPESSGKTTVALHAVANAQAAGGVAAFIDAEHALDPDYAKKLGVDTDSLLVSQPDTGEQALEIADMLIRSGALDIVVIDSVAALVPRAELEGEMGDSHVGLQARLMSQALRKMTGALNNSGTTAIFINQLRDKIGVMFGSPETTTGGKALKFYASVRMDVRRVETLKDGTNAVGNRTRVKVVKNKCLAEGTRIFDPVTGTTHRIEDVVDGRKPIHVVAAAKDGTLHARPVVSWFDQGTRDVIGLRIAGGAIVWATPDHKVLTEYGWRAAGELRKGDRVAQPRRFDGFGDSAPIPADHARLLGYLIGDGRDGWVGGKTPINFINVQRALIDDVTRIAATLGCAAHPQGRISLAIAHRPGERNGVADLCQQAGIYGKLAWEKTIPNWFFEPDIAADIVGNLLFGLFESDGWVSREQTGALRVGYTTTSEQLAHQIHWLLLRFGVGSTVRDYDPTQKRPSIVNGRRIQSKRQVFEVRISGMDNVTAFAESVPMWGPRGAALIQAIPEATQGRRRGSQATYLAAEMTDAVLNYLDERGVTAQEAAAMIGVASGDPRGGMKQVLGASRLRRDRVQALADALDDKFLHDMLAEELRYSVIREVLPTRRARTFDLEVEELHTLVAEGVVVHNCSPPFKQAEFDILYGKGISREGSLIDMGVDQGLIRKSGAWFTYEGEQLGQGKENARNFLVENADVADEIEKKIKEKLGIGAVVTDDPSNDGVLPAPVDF

[4] = P. falciparum Dd2 growth inhibitors, dose response, SYBR Green, cherry-picked samples (AID 1159567); type: functional, cell-based
H9c2 = assay: cells; type: functional, cell-based; conditions: Rattus norvegicus, H9c2, Myocardium;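 note: confirmatory concentration-response retest of ultra-high-throughput screening hits for modulation of myocardial damage; cell death induced by hydrogen peroxide oxidative stress; compound pretreatment for 60 min then peroxide exposure for 2 h; potency is for protecting the cells against peroxide damage rather than for killing them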
cells = type: functional
[5] = inhibitors of firefly luciferase expression or activity, dose response, H4 neuroglioma cells, luminescence (AID 1990); type: functional, cell-based
[6] = Luminescence Cell-Based Dose Response HTS to Identify Inhibitors of 5'UTR Stem-Loop Driven Prion Protein mRNA Translation in H4 Neuroglioblastoma Cells. [Related pubchem assays: 1827 (Project Summary), 1813 (Primary HTS)]; type: functional
[7] = inhibitors of SNCA 5'UTR-driven reporter translation, confirmation, H4 neuroglioma cells, luminescence (AID 1988); type: functional, cell-based
[8] = inhibitors of intracellular T. cruzi replication, confirmation, NIH3T3 host cells, beta-gal luminescence (AID 2044); type: functional, cell-based;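 note: intracellular parasites grown in NIH/3T3 mouse fibroblasts as host cells; luminescent beta-galactosidase reporter signal from transgenic T. cruzi replicating inside host cells; inhibitors lower the luminescence signal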
[9] = cytotoxicity toward NIH3T3 fibroblasts, dose response, counter-screen, cell-based, ATP luminescence, mouse fibroblasts (AID 2010); type: functional;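 note: cells exposed to compound for about 90 hours before reading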

| Structure (SMILES) | GI50 (P388/ADR) | GI50 (SN12K1; Homo sapiens, SN12K1) | GI50 (P388; Mus musculus, P388) | other results |
| --- | --- | --- | --- | --- |
| NC(=O)CC(NC(=O)Cc1ccc(Br)cc1)c1ccc(N2CCN(c3ccccc3)CC2)c([N+](=O)[O-])c1 (configuration not stated) | – | – | – | AC50 [1]: 14.4 µM (active) |
| CCN(CC)CCCOC(=O)/C=C/c1c(C)[nH]c(=O)[nH]c1=O | 426 µM (inactive) | > 625 µM (inactive) | > 625 µM (inactive) | – |
| C[n+]1ccc(Nc2ccc(NC(=O)c3ccc(Nc4cc[n+](C)c5ccc([N+](=O)[O-])cc45)cc3[N+](=O)[O-])cc2)cc1 | – | – | – | GI50 (SN12K1): 23.4 µM (inactive); GI50 (P388): 0.617 µM (active) |
| Fc1ccc(-[n+]2nc(Nc3ccccc3)sc2-c2c3ccccc3cc3ccccc23)cc1 | – | – | – | EC50 [2]: 6.85 µM (active); EC50 (Streptokinase A): 3.22 µM (active); EC50 (Streptococcus): 9.23 µM (active); AC50 [3]: > 380 µM (inactive); EC50 (Protein RecA): 10.6 µM (active) |
| CN1CCN(C(=O)C[C@H]2C[C@@H]3c4cc(NC(=O)Nc5ccc(C(F)(F)F)cc5)ccc4O[C@@H]3[C@@H](CO)O2)CC1 | – | – | – | AC50 [4]: 5.16 µM (active) |
| O=C(NCCCCCCNC(=O)n1cc(F)c(=O)[nH]c1=O)NCCCOCCOCCOCCOCCOCCOCCOCCOCCOCCOCCOCCOCCOCCOCCOCCOCCOCCOCCOCCOCCOCCCNC(=O)C(O)C(O)C(OC1OC(CO)C(O)C(O)C1O)C(O)CO (configuration not stated) | 0.43 µM (active) | 6.46 µM (inactive) | 0.566 µM (active) | – |
| C=C1CC(OC)(C(OC)C(=O)N(C)[C@H]2OCO[C@H]3C2O[C@H](C[C@@H](COC)OC)C(C)(C)C3OC)O[C@H](C)[C@@H]1C (some centres not stated) | 5.58 µM (inactive) | 10.9 µM (inactive) | 3.58 µM (inactive) | – |
| CC(C)[C@](O)(C(=O)OCC1=CC[N+]2([O-])CC[C@@H](O)[C@@H]12)[C@H](C)O (some centres not stated) [INDICINE N-OXIDE] | > 8990 µM (inactive) | > 10000 µM (inactive) | 6490 µM (inactive) | – |
| O=C(COc1cccc(F)c1)Nc1nc(-c2ccccn2)cs1 | – | – | – | IC50 (H9c2): > 79 µM (inactive) |
| CC(=O)C(=O)NC1/C=C(C)\C=C/C(O)C/C=C(C)\C=C/C(O)CC2OC(=O)C1(C)C(=O)C2C (configuration not stated) | 28.4 µM (inactive) | > 100 µM (inactive) | 10.4 µM (inactive) | – |
| COc1cc(O)c(Cc2ccccc2O)c(O)c1C(=O)CCc1ccccc1 [UVARETIN] | 5.38 µM (inactive) | 5.55 µM (inactive) | 4.37 µM (inactive) | – |
| O=C(N/N=C/C(Br)=C/c1ccccc1)c1cnccn1 | – | – | – | IC50 (cells): 31.1 µM (active) |
| C=CCn1c(SCc2c(C)noc2C)nc2sc3c(c2c1=O)CCCCC3 | – | – | – | EC50 [5]: 14.7 µM (active); EC50 [6]: 14.8 µM (active); EC50 [7]: 15.1 µM (active); AC50 [1]: 0.856 µM (active) |
| Cc1c(/C=N/NC(=O)c2ccc(O)cc2)c2ccccn2c1C(=O)c1ccc(F)cc1 | – | – | – | IC50 (H9c2): > 79 µM (inactive) |
| COc1cccc2c1C(=N)c1c(O)c3c(c(O)c1C2=O)C[C@@](O)(C(C)=O)C[C@@H]3OC1CC(N)C(O)C(C)O1 (some centres not stated) | 0.000673 µM (active) | 0.124 µM (active) | 0.000159 µM (active) | – |
| CC1Cc2ccccc2N1C(=O)COC(=O)c1nnc(O)c2ccccc12 (configuration not stated) | – | – | – | IC50 (H9c2): > 79 µM (inactive) |
| CCOc1cc(CNc2ccc(Br)cc2)cc(Br)c1OCC(=O)NC(C)(C)C | – | – | – | EC50 [8]: 1.91 µM (active); EC50 [9]: 37.3 µM (active); AC50 [1]: 31.6 µM (active) |
| CC1(C)CC2C1CCC1(O)CC2(C)CCC1N(O)c1ccc(C(=O)NCCO)cn1 (configuration not stated) | – | – | – | IC50 (H9c2): > 79 µM (inactive) |
